In general, IC50 refers to the concentration needed to halve the response being measured.

Where a SMILES comes first, the peptide text is derived from it. [ ]: non-standard residue; d: D form. The star is where a group is joined. sY = N[C@@H](Cc1ccc(OS(=O)(=O)O)cc1)C(=O)O; Cbz = O=C(OCc1ccccc1)*; Boc = CC(C)(C)OC(=O)*

The values below come from patent publication US4563451A, “Quinazolino-1,4-benzodiazepin-5,13-diones” (Merck & Co., Inc., priority 1985, dated 1986).

One test relates to CCK-receptor. To be noted: background; cited from earlier work.
A further test concerns the target T1, CCK receptor (pancreas) (Rattus norvegicus, UniProt P30551).
T1 construct: The whole pancreas of a male Sprague-Dawley rat; from tissue; host or cells: whole pancreas of male Sprague-Dawley rat, washed membrane suspension
T1 sequence (P30551 1-444): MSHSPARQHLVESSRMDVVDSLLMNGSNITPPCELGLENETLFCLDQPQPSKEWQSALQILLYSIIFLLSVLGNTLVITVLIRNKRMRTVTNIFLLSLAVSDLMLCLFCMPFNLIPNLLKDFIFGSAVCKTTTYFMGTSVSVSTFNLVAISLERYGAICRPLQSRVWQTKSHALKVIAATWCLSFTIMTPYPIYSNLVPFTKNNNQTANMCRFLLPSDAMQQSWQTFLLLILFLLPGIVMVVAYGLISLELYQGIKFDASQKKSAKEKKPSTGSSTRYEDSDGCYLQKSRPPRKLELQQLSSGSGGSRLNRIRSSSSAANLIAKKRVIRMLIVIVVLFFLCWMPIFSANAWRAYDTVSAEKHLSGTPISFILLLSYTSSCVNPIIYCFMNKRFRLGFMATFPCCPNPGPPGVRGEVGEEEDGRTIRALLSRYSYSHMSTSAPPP
The experiment in a line: CCK receptor binding (pancreas) method; I-CCK-8 pancreas assay (CCK-antagonism). Details: species or system male Sprague-Dawley rat. To be noted: for IC50: 125I-CCK binding, rat pancreas membranes, 37° C., 30 minutes, read-out: Anti-CCK Activity IC50; for effect on the 125I-CCK receptor binding assay: added protease inhibitor in the binding assay. The source says: Screening of the novel compounds according to the present invention to determine biological activity and obtain an IC50 value for them, in order to identify significant CCK-antagonism, may be accomplished using an ^125 I-CCK receptor binding assay and in vitro isolated tissue preparations. These tests involve the following:
CCK receptor binding (pancreas) method
CCK-33 is radiolabeled with ^125 I-Bolton Hunter reagent (2000 Ci/mmole), as described by Sankara et al. (J. Biol. Chem., 254, 9349-9351, 1979). Receptor binding is performed according to Innis and Snyder (Proc. Natl. Acad. Sci., 77, 6917-6921, 1980), with the minor modification of adding the additional protease inhibitors, phenyl-methane sulfonyl fluoride and o-phenanthroline, which have no effect on the ^125 I-CCK receptor binding assay.
The whole pancreas of a male Sprague-Dawley rat (200-350 g), which has been sacrificed by decapitation, is dissected free of fat tissue and homogenized in 20 volumes of ice-cold 50 mM Tris HCl (pH 7.7 at 25° C.) with a Brinkman Polytron PT-10. The homogenates are centrifuged at 48,000 g for 10 minutes, then the resulting pellets are resuspended in Tris Buffer, centrifuged as above, and resuspended in 200 volumes of binding assay buffer (50 mM Tris HCl, pH 7.7 at 25° C., 5 mM dithiothreitol, 0.1 mM bacitracin, 1.2 mM phenylmethane sulfonyl fluoride and 0.5 mM o-phenanthroline).
For the binding assay, 25 μl of buffer (for total binding), or unlabeled CCK-8 sulfate sufficient to give a final concentration of 1 μM of CCK-8 (for nonspecific binding), or the compounds of the formula of the compounds according to the instant invention (for determination of antagonism to ^125 I-CCK binding) and 25 μl of ^125 I-CCK-33 (30,000-40,000 cpm), are added to 450 μl of the membrane suspensions in microfuge tubes. All assays are run in duplicate or triplicate, and the reaction mixtures are incubated at 37° C. for 30 minutes and centrifuged in a Beckman Microfuge (4 minutes) immediately after adding 1 ml of ice-cold incubation buffer. The supernatant is aspirated and discarded, and the pellets are counted with a Beckman Gamma 5000.
Activity Testing with I-CCK-8 Pancreas Assay
The compounds of Examples 1-11 were tested as CCK-antagonists (pancreas assay) with the following results: […]
For orientation: Formazan colour is commonly taken as a measure of viable cells.

For the molecule `CCCC(=O)Nc1nc2c(ncn2[C@@H]2O[C@@H]3COP(=O)(O)O[C@H]3[C@H]2OC(=O)CCC)c(=O)[nH]1` [dibutyryl cyclic GMP], the “CCK-antagonism (in words)” value in the test with CCK-receptor is reported as “the most potent”.

With `CC(C)C[C@H]1C(=O)N2c3ccccc3[C@@](O)(C[C@@H]3NC(=O)c4ccccc4-n4c3nc3ccccc3c4=O)[C@H]2N1C(=O)[C@H](Cc1ccc(O)cc1)NC(=O)OC(C)(C)C` [Example 8, 7-{{1-[2-((1,1-dimethylethoxy)carbonyl)amino-3-(4-hydroxyphenyl)propanoyl]-2,3,9,9Aα-tetrahydro-9α-hydroxy-2-(2-methylpropyl)-3-oxo-1H-imidazo(1,2-A)indol-9-yl}methyl}quinazolino(3,2-A)-1,4-benzodiazepin-5,13-(6H,7H)-dione hemihydrate], the half-maximal inhibitory concentration (IC50) on CCK receptor (pancreas) was 46 µM.

`O=S(=O)(F)Cc1ccccc1` [phenyl-methane sulfonyl fluoride, reference compound]: on CCK receptor (pancreas), the “effect on the 125I-CCK receptor binding assay” value is “no effect”.

`CSCC[C@H](NC(=O)[C@H](Cc1ccc(OS(=O)(=O)O)cc1)NC(=O)OCc1ccccc1)C(=O)NCC(=O)N[C@@H](Cc1c[nH]c2ccccc12)C(=O)N[C@@H](CCSC)C(=O)N[C@@H](CC(=O)O)C(N)=O` [Cbz--Tyr(SO3 H)--Met--Gly--Trp--Met--Asp--NH2] (Cbz-[sY]MGWMD-NH2): the “CCK-antagonism (in words)” value with CCK-receptor is “can function as CCK-antagonists”.

In the case of `CC(C)C[C@H]1C(=O)N2c3ccccc3[C@@](O)(C[C@@H]3NC(=O)c4ccccc4N4C(=O)c5ccccc5NC34)[C@H]2N1C(=O)C(CCCNC(=O)OCc1ccccc1)NC(=O)OC(C)(C)C` (stereo partly drawn) [Example 11, 7-{{1-[2-((1,1-dimethylethoxy)carbonyl)amino-5-(phenylmethyloxycarbonyl)aminopentanoyl]-2,3,9,9Aα-tetrahydro-9α-hydroxy-2-(2-methylpropyl)-3-oxo-1H-imidazo(1,2-A)indol-9-yl}methyl}-6,7,7A,8-tetrahydro-5H,13-quinazolino(3,2-A)-1,4-benzodiazepin-5H,13-dione hydrate], on CCK receptor (pancreas), the IC50 came out at 1.3 µM.

For the molecule `CC(C)C[C@@H]1N[C@H]2N(C1=O)c1ccccc1[C@@]2(O)C[C@@H]1NC(=O)c2ccccc2N2C(=O)c3ccccc3NC12` (stereo partly drawn) [Example 1, 7,7a-dihydro-7-[(2,3,9,9Aα-tetrahydro-9α-hydroxy-2-(2-methylpropyl)-3-oxo-1H-imidazo(1,2-a)indol-9-yl)methyl]quinazolino(3,2-a)(1,4)benzazepin-5,13-(6H,7H)dione hydrate], the IC50 at CCK receptor (pancreas) was 0.21 µM.

Turning to `CCN1[C@H]2N(C(=O)[C@@H]1CC(C)C)c1ccccc1[C@@]2(O)C[C@@H]1NC(=O)c2ccccc2N2C(=O)c3ccccc3NC12` (stereo partly drawn) [Example 3, 7-[(1-ethyl-2,3,9,9Aα-tetrahydro-9α-hydroxy-2-(2-methylpropyl)-3-oxo-1H-imidazo(1,2-A)indol-9-yl)methyl]-6,7,7A,8-tetrahydro-5H,13H-quinazolino-(3,2-A)-1,4-benzazepin-5H,13-dione hemihydrate], the IC50 on CCK receptor (pancreas) amounted to 0.35 µM.

Regarding `CC(C)C[C@@H]1N[C@H]2N(C1=O)c1ccccc1[C@@]2(O)C[C@@H]1NC(=O)c2ccccc2-n2c1nc1ccccc1c2=O` [formula (I), 7β-((2,3,9,9Aα-tetrahydro-9α-hydroxy-2-(2-methylpropyl)-3-oxo-1H-imidazo-(1,2-A)-indol-9-yl)-methyl)quinazolino(3,2-A)(1,4)benzodiazepin-5,13-(6H,7H)dione], the “CCK-antagonism (in words)” value in the test on CCK-receptor was “has been shown to be a CCK-antagonist”.

Regarding `CC(=O)N1[C@H]2N(C(=O)[C@@H]1CC(C)C)c1ccccc1[C@@]2(O)C[C@@H]1NC(=O)c2ccccc2-n2c1nc1ccccc1c2=O` [Example 2, 7-[(1-acetyl-2,3,9,9Aα-tetrahydro-9α-hydroxy-2-(2-methylpropyl)-3-oxo-1H-imidazo(1,2-A)indol-9-yl)methyl]quinazolino(3,2-A)-1,4-benzodiazepin-5,13-(6H,7H)-dione], the IC50 at CCK receptor (pancreas) amounted to 22 µM.

In the case of `CC(C)C[C@H]1C(=O)N2c3ccccc3[C@@](O)(C[C@@H]3NC(=O)c4ccccc4-n4c3nc3ccccc3c4=O)[C@H]2N1C(=O)C(CCCCNC(=O)OCc1ccccc1)NC(=O)OC(C)(C)C` (stereo partly drawn) [Example 9, 7-{{1-[2-((1,1-dimethylethoxy)carbonyl)amino-6-(phenylmethyloxycarbonyl)aminohexanoyl]-2,3,9,9Aα-tetrahydro-9α-hydroxy-2-(2-methylpropyl)-3-oxo-1H-imidazo(1,2-A)indol-9-yl}methyl}quinazolino(3,2-A)-1,4-benzodiazepin-5,13-(6H,7H)-dione hydrate], the IC50 at CCK receptor (pancreas) turned out to be 100 µM.

Turning to `CC(C)CC1C(=O)N2c3ccccc3C(O)(CC3NC(=O)c4ccccc4-n4c3nc3ccccc3c4=O)C2N1C(=O)OCc1ccccc1` (stereo not drawn) [Example 4], the IC50 on CCK receptor (pancreas) worked out at 5 µM.

On to `c1cnc2c(c1)ccc1cccnc12` [o-phenanthroline, reference compound], for which, on CCK receptor (pancreas), the “effect on the 125I-CCK receptor binding assay” value is listed as “no effect”.

As for `CSCC[C@H](NC(=O)OC(C)(C)C)C(=O)N[C@@H](CC(=O)O)C(=O)N[C@@H](Cc1ccccc1)C(N)=O` [Boc--Met--Asp--Phe--NH2] (Boc-Met-Asp-Phe-NH2), in the test with CCK-receptor, the “CCK-antagonism (in words)” value was “can function as CCK-antagonists”.

In the case of `CC(C)C[C@H]1C(=O)N2c3ccccc3[C@@](O)(C[C@@H]3NC(=O)c4ccccc4N4C(=O)c5ccccc5NC34)[C@H]2N1O` (stereo partly drawn) [Example 5, 7,7α-dihydro-7-[(2,3,9,9Aα-tetrahydro-1,9α-dihydroxy-2-(2-methylpropyl)-3-oxo-1H-imidazo-(1,2-A)-indol-9-yl)methyl]quinazolino(3,2-A)-1,4-benzodiazepin-5,13(6H,7H)-dione hydrate], the IC50 on CCK receptor (pancreas) is 0.67 µM.

In the case of `CC(C)C[C@H]1C(=O)N2c3ccccc3[C@@](O)(C[C@@H]3NC(=O)c4ccccc4-n4c3nc3ccccc3c4=O)[C@H]2N1C(=O)[C@H](Cc1ccc(OCc2ccccc2)cc1)NC(=O)OC(C)(C)C` [Example 7, 7-{{1-[N-((1,1-dimethylethoxy)carbonyl)-o-phenylmethyltryosyl]-2,3,9,9Aα-tetrahydro-9α-hydroxy-2-(2-methylpropyl)-3-oxo-1H-imidazo(1,2-A)indol-9-yl}methyl}quinazolino(3,2-A)-1,4-benzodiazepin-5,13-(6H,7H)-dione], on CCK receptor (pancreas), the half-maximal inhibitory concentration (IC50) amounted to 100 µM.

For `CSCC[C@H](N)C(=O)N[C@@H](CC(=O)O)C(=O)N[C@@H](Cc1ccccc1)C(N)=O` [Met--Asp--Phe--NH2] (H-Met-Asp-Phe-NH2), the “CCK-antagonism (in words)” value in the test with CCK-receptor is listed as “can function as CCK-antagonists”.

For `CC(C)CC1C(=O)N2c3ccccc3C(O)(CC3NC(=O)c4ccccc4-n4c3nc3ccccc3c4=O)C2N1CCCc1ccccc1` (stereo not drawn) [Example 6, 7-[1-(3-phenylpropyl)-2,3,9,9Aα-tetrahydro-9α-hydroxy-2-(2-methylpropyl)-3-oxo-1H-imidazo(1,2-A)indol-9-yl)methyl]-6,7,7A,8-tetrahydro-5H,13H-quinazolino(3,2-A)-1,4-benzazepin-5H,13-dione sesquihydrate], the IC50 on CCK receptor (pancreas) worked out at 0.19 µM.

Consider `CC(C)C[C@H]1C(=O)N2c3ccccc3[C@@](O)(C[C@@H]3NC(=O)c4ccccc4-n4c3nc3ccccc3c4=O)[C@H]2N1C(=O)C(CCCNC(=O)OCc1ccccc1)NC(=O)OC(C)(C)C` (stereo partly drawn) [Example 10, 7-{{1-[2-((1,1-dimethylethoxy)carbonyl)amino-5-(phenylmethyloxycarbonyl)aminopentanoyl]-2,3,9,9Aα-tetrahydro-9α-hydroxy-2-(2-methylpropyl)-3-oxo-1H-imidazo(1,2-A)indol-9-yl}methyl}quinazolino(3,2-A)-1,4-benzodiazepin-5,13-(6H,7H)-dione], for which the IC50 at CCK receptor (pancreas) was 4.3 µM.
